Test results: US20060128727A1, “Fungicidal mixtures based on a triazolopyrimidine derivative” (priority 2003, published 2006)

Test system: Plasmopara viticola
Test: Activity against peronospora of grapevines caused by Plasmopara viticola (protective spray test on potted vines)
Format: in vivo
Conditions: individual active compound, vines cultivar Riesling
Protocol: The active compounds, separately or jointly, were prepared as a stock solution comprising 0.25% by weight of active compound in acetone or DMSO. 1% by weight of the emulsifier Uniperol® EL (wetting agent having emulsifying and dispersant action based on ethoxylated alkylphenols) was added to this solution, and the mixture was diluted with water to the desired concentration. USE EXAMPLE
Leaves of potted vines of the cultivar “Riesling” were sprayed to runoff point with an aqueous suspension having the concentration of active compound stated below. The next day, the undersides of the leaves were inoculated with an aqueous zoospore suspension of Plasmopara viticola. The grapevines were then initially placed in a water-vapor-saturated chamber at 24° C. for 48 hours and then in a greenhouse at 20-30° C. for 5 days. After this period of time, the plants were again placed in a humid chamber for 16 hours to promote sporangiophore eruption. The extent of the development of the disease on the undersides of the leaves was then determined visually.
The visually determined percentages of infected leaf areas were converted into efficacies in % of the untreated control:
The efficacy (E) is calculated as follows using Abbot's formula: E=(1−α/β)·100 • α corresponds to the fungicidal infection of the treated plants in % and • β corresponds to the fungicidal infection of the untreated (control) plants in %
An efficacy of 0 means that the infection level of the treated plants corresponds to that of the untreated control plants; an efficacy of 100 means that the treated plants were not infected.
The expected efficacies of mixtures of active compounds were determined using Colby's formula (Colby, S. R. “Calculating synergistic and antagonistic responses of herbicide combinations”, Weeds, 15, 20-22, 1967) and compared with the observed efficacies.
Colby's Formula: E=x+y−x·y/100 • E expected efficacy, expressed in % of the untreated control, when using the mixture of the active compounds A and B at the concentrations a and b • x efficacy, expressed in % of the untreated control, when using the active compound A at the concentration a • y efficacy, expressed in % of the untreated control, when using the active compound B at the concentration b

Structure (SMILES)	Efficacy in % of the untreated control (4 ppm in the spray liquor)	Efficacy in % of the untreated control (1 ppm in the spray liquor)	Efficacy in % of the untreated control (63 ppm in the spray liquor)
CC1CCN(c2c(-c3c(F)cccc3Cl)c(Cl)nc3ncnn23)CC1 [Comparison A]	0%		
C[C@H](Nc1c(-c2c(F)cc(F)cc2F)c(Cl)nc2ncnn12)C(F)(F)F [Comparison B]	11%		
CC1CCN(c2c(-c3c(F)cc(F)cc3F)c(Cl)nc3ncnn23)CC1 [I, 5-chloro-7-(4-methylpiperidin-1-yl)-6-(2,4,6-trifluorophenyl)-[1,2,4]triazolo[1,5-a]pyrimidine]	56%		
Cc1cc(C)nc(Nc2ccccc2)n1 [II-1, (4,6-dimethylpyrimidin-2-yl)phenylamine]	0%	0%	0%
Cc1cc(C2CC2)nc(Nc2ccccc2)n1 [II-2, (4-cyclopropyl-6-methylpyrimidin-2-yl)phenylamine]	0%	0%	0%
CC#Cc1cc(C)nc(Nc2ccccc2)n1 [II-3, (4-methyl-6-prop-1-ynylpyrimidin-2-yl)phenylamine]	0%	0%	0%
